Measured values reported in ChEMBL document CHEMBL4680243, “N-benzyl 4,4-disubstituted piperidines as a potent class of influenza H1N1 virus inhibitors showing a novel mechanism of hemagglutinin fusion peptide interaction” (Eur J Med Chem, 2020).

Legend:
[1] = test system: Influenza A virus; assay: Antiviral activity against Influenza A virus (A/PR 8/34 (H1N1)) infected in MDCK cells assessed as reduction in virus-induced cytopathic effect measured after 72 hrs by MTS assay; format: functional, organism-based; conditions: A/Puerto Rico/8/1934(H1N1)
[2] = test system: Influenza A virus; assay: Antiviral activity against Influenza A virus (A/PR 8/34 (H1N1)) infected in MDCK cells assessed as reduction in virus-induced cytopathic effect measured after 72 hrs by microscopic analysis; format: functional, organism-based; conditions: A/Puerto Rico/8/1934(H1N1)
[3] = Cytotoxicity against MDCK cells assessed as reduction in cell viability measured after 72 hrs by MTS assay; format: cell-based, Canis lupus familiaris; conditions: dog
[4] = Cytotoxicity against MDCK cells assessed as change in cell morphology measured after 72 hrs by microscopic analysis; format: cell-based, Canis lupus familiaris; conditions: dog
[5] = Selectivity index, ratio of CC50 for MDCK cells to EC50 for antiviral activity against Influenza A virus (A/Puerto Rico/8/1934(H1N1)) infected in MDCK cells; format: toxicity, cell-based; conditions: dog, read-out: Ratio CC50/EC50

| Compound | EC50 [1] [µM] | EC50 [2] [µM] | CC50 at 72 h [3] [µM] | MCC at 72 h [4] [µM] | selectivity ratio [5] |
| --- | --- | --- | --- | --- | --- |
| COC(=O)C[C@H](NC(=O)OC(C)(C)C)C(=O)N(Cc1ccc(F)cc1)C1(C(=O)NCS(=O)(=O)c2ccc(C)cc2)CCN(Cc2ccccc2)CC1 | > 100 | > 100 | 6.4 | 4 |  |
| COC(=O)C[C@H](NC(=O)OC(C)(C)C)C(=O)N(Cc1ccc([N+](=O)[O-])cc1)C1(C(=O)NCc2ccccc2)CCN(Cc2ccccc2)CC1 | > 100 | 10 | > 100 | 20 |  |
| COC(=O)C[C@H](N)C(=O)N(Cc1ccc(F)cc1)C1(C(=O)NCc2ccccc2)CCN(Cc2ccccc2)CC1 | < 0.8 | < 0.8 | 54 | 60 |  |
| CC(C)(C)OC(=O)N[C@@H](Cc1ccccc1)C(=O)N(Cc1ccc(F)cc1)C1(C(=O)NCc2ccccc2)CCN(Cc2ccccc2)CC1 | > 100 | > 100 | 56 | 100 |  |
| COC(=O)CC[C@H](NC(=O)OC(C)(C)C)C(=O)N(Cc1ccc(F)cc1)C1(C(=O)NCc2ccccc2)CCN(Cc2ccccc2)CC1 | 10 | 9.8 | > 100 | > 100 | ≤ 10 |
| CC[C@H](C)[C@H](NC(=O)OCc1ccccc1)C(=O)N(C1CC1)C1(C(=O)NC(C)(C)C)CCN(Cc2ccccc2)CC1 | 3.9 | 4.3 | 59 | 100 | 13 |
| COC(=O)C[C@H](NC(=O)OCc1ccccc1)C(=O)N(Cc1ccc(F)cc1)C1(C(=O)NCc2ccccc2)CCN(Cc2ccccc2)CC1 | > 100 | 2.7 | 1.9 | 2.6 |  |
| CC[C@H](C)[C@H](NC(=O)OC(C)(C)C)C(=O)N(Cc1ccccc1)C1(C(=O)NCc2ccccc2)CCN(Cc2ccccc2)CC1 | > 100 | > 100 | > 100 | > 100 |  |
| COC(=O)CCC(=O)N(Cc1ccc(F)cc1)C1(C(=O)NCc2ccccc2)CCN(Cc2ccccc2)CC1 | 24 | 25 | 40 | 16 |  |
| COC(=O)C[C@H](NC(=O)OC(C)(C)C)C(=O)N(Cc1ccc(F)cc1)C1(C(=O)NCc2ccccc2)CCN(C)CC1 | 36 | 36 | 9.5 | 17 |  |
| COC(=O)C[C@H](NC(=O)OC(C)(C)C)C(=O)N(Cc1ccc(F)cc1)C1(C(=O)NCc2ccccc2)CCN(C2CCCCC2)CC1 | > 100 | > 100 | 42 | 73 |  |
| COC(=O)C[C@H](NC(=O)OC(C)(C)C)C(=O)N(C1CC1)C1(C(=O)NCc2ccccc2)CCN(Cc2ccccc2)CC1 | > 100 | > 100 | 56 | 84 |  |
| COC(=O)C[C@H](NC(=O)OC(C)(C)C)C(=O)N(Cc1ccc(C)cc1)C1(C(=O)NCc2ccccc2)CCN(Cc2ccccc2)CC1 | > 100 | 6.9 | > 100 | > 100 |  |
| COC(=O)C[C@H](NC(=O)OC(C)(C)C)C(=O)N(Cc1cccc(F)c1)C1(C(=O)NCc2ccccc2)CCN(Cc2ccccc2)CC1 | 5.2 | 4.1 | 75 | 47 | ≤ 10 |
| COC(=O)C[C@H](NC(=O)OC(C)(C)C)C(=O)N(Cc1ccc(F)cc1)C1(C(=O)NCc2ccccc2)CCN(c2ccccc2)CC1 | > 100 | > 100 | 8.2 | 20 |  |
| COC(=O)C[C@H](NC(=O)OC(C)(C)C)C(=O)N(Cc1ccccc1)C1(C(=O)NCc2ccccc2)CCN(Cc2ccccc2)CC1 | 10 | 9.3 | > 100 | > 100 | ≤ 10 |
| COC(=O)C[C@H](NC(=O)OC(C)(C)C)C(=O)N(CCNc1ccccc1)C1(C(=O)NCc2ccccc2)CCN(Cc2ccccc2)CC1 | > 100 | > 100 | 68 | 14 |  |
| CC(C)(C)OC(=O)N[C@@H](CC(N)=O)C(=O)N(Cc1ccccc1)C1(C(=O)NCc2ccccc2)CCN(Cc2ccccc2)CC1 | 6.7 | 6.3 | > 100 | > 100 | ≤ 10 |
